Results published in patent publication US20220331391A1 (priority 2021, published 2022).
Converted amounts (≈) assume the structure as drawn. “And” between values parts separate entries of the source, which are not always exact repeats. Identical values can stand only once. Like-named read-outs stand apart in the source and are kept apart here.

Assays:
[1] = system: Coccidioides posadasii, Silveira strain; set-up: species or system mice; details: mouse, in vivo
[2] = system: Coccidioides posadasii, Silveira strain; details: cited from earlier work
[3] = mouse, in vivo; cited from earlier work
Coccidioides [4] = details: mouse, in vivo, 40 mg/kg/day; cited from earlier work
Coccidioides [5] = details: mouse, in vivo; cited from earlier work
[6] = mouse, in vivo, po, cited from earlier work
[7] = human, in vivo, po
[8] = dog, in vivo, po
[9] = in vivo, cited from earlier work
[10] = mouse, in vivo, cited from earlier work; for Cmax in plasma / Tmax in plasma / t1/2 in plasma: po

Structure (SMILES): OC(Cn1cncn1)(Cn1cncn1)c1ccc(F)cc1F [FCZ, Fluconazole, reference compound]
- Brains sterilized in survivors [1]: 20%
- Clear brains of survivors (mice) [1]: 1 of 5
- Infected brain and infected other organs, number of mice among survivors [1]: 4
- Infected brain only, number of mice among survivors [1]: 0
- Infected brain, number of mice among survivors [1]: 4
- Infected kidney, number of mice among survivors [1]: 1
- Infected liver, number of mice among survivors [1]: 4
- Infected lung, number of mice among survivors [1]: 4
- Infected spleen, number of mice among survivors [1]: 3
- Kidney CFU in survivors: number of mice with 0 CFU [1]: 5
- Kidney CFU in survivors: number of mice with 1-2 CFU [1]: 0
- Kidney CFU in survivors: number of mice with 10-20 CFU [1]: 0
- Kidney CFU in survivors: number of mice with TNTC (too numerous to count) [1]: 0
- Liver CFU in survivors: number of mice with 0 CFU [1]: 1
- Liver CFU in survivors: number of mice with 1-2 CFU [1]: 1
- Liver CFU in survivors: number of mice with 10-20 CFU [1]: 2
- Liver CFU in survivors: number of mice with TNTC (too numerous to count) [1]: 1
- Lung CFU in survivors: number of mice with 0 CFU [1]: 1
- Lung CFU in survivors: number of mice with 1-2 CFU [1]: 2
- Lung CFU in survivors: number of mice with 10-20 CFU [1]: 1
- Lung CFU in survivors: number of mice with TNTC (too numerous to count) [1]: 1
- No infection any organ, number of mice (complete sterilization) [1]: 1
- Semiquantitative culture, CFU in all organs except the spleen [1]: too numerous to count
- Semiquantitative culture, CFU in spleen [1]: no CFU
- Spleen CFU in survivors: number of mice with 0 CFU [1]: 2
- Spleen CFU in survivors: number of mice with 1-2 CFU [1]: 2
- Spleen CFU in survivors: number of mice with 10-20 CFU [1]: 1
- Spleen CFU in survivors: number of mice with TNTC (too numerous to count) [1]: 0
- Survival [1]: 50%
- Survivors [1]: 5/10
- MFC [2]: > 100 µg/mL
- MIC [2]: 6.25 µg/mL (≈ 20.4 µM)

Structure (SMILES): C[C@@H]([C@H](N)C(=O)N[C@H](C(=O)O)[C@H]1O[C@@H](n2ccc(=O)[nH]c2=O)[C@H](O)[C@@H]1O)[C@H](O)c1ccc(O)cn1 [nikZ, Nikkomycin Z]
- Tolerated oral dose [3]: up to 2000 mg/kg/day
- Survival (Coccidioides [4]): 20%
- Liver CFU asymptote of dose response curve (Coccidioides [5]): about 100 CFU
- Lung fungal count at suppression (dose response curve) (Coccidioides [5]): below 10 CFU
- Spleen fungal count at suppression (dose response curve) (Coccidioides [5]): below 10 CFU
- log10 CFU reduction in liver (Coccidioides [5]): −1.7 log10 CFU
- log10 CFU reduction in lung (Coccidioides [5]): −3.2 log10 CFU
- log10 CFU reduction in spleen (Coccidioides [5]): −1.8 log10 CFU
- Cmax in brain ([6]; 100 mg/kg): 0.20 mcg/gm
- Tmax in brain ([6]; 100 mg/kg): 2 h
- t1/2 in brain ([6]; 100 mg/kg): 6.2 h
- Cmax in brain ([6]; 300 mg/kg): 0.26 mcg/gm
- Tmax in brain ([6]; 300 mg/kg): 2 h
- t1/2 in brain ([6]; 300 mg/kg): 4.4 h
- Brains sterilized in survivors [1]: 86% and 89% and 80%
- Brains sterilized, mice/10 treated [1]: ≥ 6 mice/10
- Clear brains of survivors (mice) [1]: 6 of 7 and 8 of 9
- Infected brain, number of mice among survivors [1]: 1 and 2
- Infected kidney, number of mice among survivors [1]: 0
- Infected spleen, number of mice among survivors [1]: 0
- Kidney CFU in survivors: number of mice with 0 CFU [1]: 7 and 9 and 10
- Kidney CFU in survivors: number of mice with 1-2 CFU [1]: 0
- Kidney CFU in survivors: number of mice with 10-20 CFU [1]: 0
- Kidney CFU in survivors: number of mice with TNTC (too numerous to count) [1]: 0
- Liver CFU in survivors: number of mice with 0 CFU [1]: 6 and 9 and 10
- Liver CFU in survivors: number of mice with 10-20 CFU [1]: 0
- Liver CFU in survivors: number of mice with TNTC (too numerous to count) [1]: 0
- Lung CFU in survivors: number of mice with 0 CFU [1]: 6 and 9
- Lung CFU in survivors: number of mice with 10-20 CFU [1]: 0
- Lung CFU in survivors: number of mice with TNTC (too numerous to count) [1]: 0
- No infection any organ, number of mice (complete sterilization) [1]: 6 and 8
- Spleen CFU in survivors: number of mice with 0 CFU [1]: 7 and 9 and 10
- Spleen CFU in survivors: number of mice with 1-2 CFU [1]: 0
- Spleen CFU in survivors: number of mice with 10-20 CFU [1]: 0
- Spleen CFU in survivors: number of mice with TNTC (too numerous to count) [1]: 0
- Survivors [1]: 7/10 and 9/10 and 10/10
- Blood level as % of Cmax by 8 hours [7]: about 5%
- Time to reach Cmax [7]: 1 to 2 h
- Blood level as % of Cmax by 8 hours [8]: about 5%
- Time to reach Cmax [8]: 1 to 2 h
- MFC [2]: 2.5 µg/mL (≈ 5.05 µM)
- MIC [2]: 2.5 µg/mL (≈ 5.05 µM)
- Half-life in blood (clearance) ([9]; human): 1 to 2 h
- Dose at which tapering in oral uptake efficiency is observed (breakpoint) ([9]; po): about 5.5 mg/kg
- Cmax in plasma ([10]; 100 mg/kg): 4200 ng/mL
- Tmax in plasma ([10]; 100 mg/kg): 2 h
- t1/2 in plasma ([10]; 100 mg/kg): 2.2 h
- Cmax in plasma ([10]; 300 mg/kg): 8000 ng/mL
- Tmax in plasma ([10]; 300 mg/kg): 1 h
- t1/2 in plasma ([10]; 300 mg/kg): 2.3 h
- Half-life in blood (clearance) [10]: 1 to 2 h
- Cmin as % of Cmax (mouse, in vivo): 1%
- Blood level as % of Cmax by 8 hours (mouse, in vivo, po): about 5%
- Time to reach Cmax (mouse, in vivo, po): 1 to 2 h
- AUC (mouse, in vivo, po, 50 mg/kg): 13,000
- Cmax (mouse, in vivo, po, 50 mg/kg): 3,750 ng/ml
- T 1/2 (mouse, in vivo, po, 50 mg/kg): 2.61 h
- Tmax (mouse, in vivo, po, 50 mg/kg): 1
- AUC (mouse, in vivo, po, 100 mg/kg): 20,600
- Cmax (mouse, in vivo, po, 100 mg/kg): 4,620 ng/ml
- T 1/2 (mouse, in vivo, po, 100 mg/kg): 2.15 h
- Tmax (mouse, in vivo, po, 100 mg/kg): 1
- AUC (mouse, in vivo, po, 300 mg/kg): 38,200
- Cmax (mouse, in vivo, po, 300 mg/kg): 7,950 ng/ml
- T 1/2 (mouse, in vivo, po, 300 mg/kg): 2.26 h
- Tmax (mouse, in vivo, po, 300 mg/kg): 2
- Mouse plasma nikZ level (time 0.5): 2920 ng/mL
- Mouse plasma nikZ level, % (of Cmax) (time 0.5): 77.9%
- Mouse plasma nikZ level (time 1): 3750 ng/mL
- Mouse plasma nikZ level, % (of Cmax) (time 1): 100%
- Mouse plasma nikZ level (time 2): 2320 ng/mL
- Mouse plasma nikZ level, % (of Cmax) (time 2): 62% and 61.9%
- Mouse plasma nikZ level (time 4): 1400 ng/mL
- Mouse plasma nikZ level, % (of Cmax) (time 4): 37% and 37.3%
- Mouse plasma nikZ level (time 8): 180 ng/mL
- Mouse plasma nikZ level, % (of Cmax) (time 8): 4.8%
- Mouse plasma nikZ level (time 12): 35 ng/mL
- Mouse plasma nikZ level, % (of Cmax) (time 12): 0.9%
- Mouse plasma nikZ level (time 24): 7.5 ng/mL
- Mouse plasma nikZ level, % (of Cmax) (time 24): 0.2%
